Assays:
Trypanosoma cruzi = assay: Antiparasitic activity against Trypanosoma cruzi amastigotes infected in gamma-irradiated vero cells assessed as growth inhibition by fluorescence assay; type: functional, organism-based; details: light or radiation study
Toxoplasma gondii [1] = assay: Antiparasitic activity against Toxoplasma gondii tachyzoite expressing red fluorescence protein assessed as growth inhibition by fluorescence plate reader; type: functional, organism-based
[2] = target: T1, Farnesyl diphosphate synthase (Trypanosoma cruzi, UniProt Q8WS26); assay: Inhibition of Trypanosoma cruzi FPPS after 30 mins using [14C]IPP by scintillation counting
T1 sequence (Q8WS26 whole entry): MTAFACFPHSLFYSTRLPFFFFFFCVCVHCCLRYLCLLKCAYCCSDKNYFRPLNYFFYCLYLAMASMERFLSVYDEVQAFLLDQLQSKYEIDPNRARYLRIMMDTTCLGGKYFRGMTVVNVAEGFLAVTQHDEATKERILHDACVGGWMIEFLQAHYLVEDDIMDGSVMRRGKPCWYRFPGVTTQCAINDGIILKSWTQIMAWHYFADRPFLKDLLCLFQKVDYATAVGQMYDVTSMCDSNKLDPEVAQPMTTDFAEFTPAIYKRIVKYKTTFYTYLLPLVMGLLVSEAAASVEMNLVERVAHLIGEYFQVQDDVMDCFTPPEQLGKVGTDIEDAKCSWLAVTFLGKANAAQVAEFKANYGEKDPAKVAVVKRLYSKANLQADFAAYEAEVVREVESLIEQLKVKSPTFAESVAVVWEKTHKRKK

[3] = target: T2, Farnesyl diphosphate synthase (Toxoplasma gondii, UniProt Q197X6); assay: Inhibition of Toxoplasma gondii FPPS after 30 mins using [14C]IPP by scintillation counting
T2 sequence (Q197X6 whole entry): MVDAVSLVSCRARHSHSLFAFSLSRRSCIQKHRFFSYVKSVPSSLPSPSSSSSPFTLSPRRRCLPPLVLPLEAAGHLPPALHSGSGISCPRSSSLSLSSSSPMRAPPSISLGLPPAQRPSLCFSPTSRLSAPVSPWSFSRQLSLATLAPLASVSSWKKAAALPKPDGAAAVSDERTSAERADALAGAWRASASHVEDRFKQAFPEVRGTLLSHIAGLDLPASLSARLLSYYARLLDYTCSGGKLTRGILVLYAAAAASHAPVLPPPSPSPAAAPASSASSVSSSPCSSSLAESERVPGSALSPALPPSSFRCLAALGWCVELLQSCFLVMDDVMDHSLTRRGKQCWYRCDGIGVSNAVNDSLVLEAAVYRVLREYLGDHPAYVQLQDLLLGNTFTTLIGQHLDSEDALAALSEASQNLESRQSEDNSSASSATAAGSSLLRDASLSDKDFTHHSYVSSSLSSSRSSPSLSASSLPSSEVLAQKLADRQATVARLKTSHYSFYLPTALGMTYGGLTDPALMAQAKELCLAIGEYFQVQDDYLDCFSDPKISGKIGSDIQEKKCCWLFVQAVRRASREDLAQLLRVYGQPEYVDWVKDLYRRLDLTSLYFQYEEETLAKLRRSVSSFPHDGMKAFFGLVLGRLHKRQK

Toxoplasma gondii [4] = assay: Antiparasitic activity against Toxoplasma gondii assessed as growth inhibition; type: functional, organism-based

| SMILES | IC50 (Trypanosoma cruzi) [nM] | IC50 (Toxoplasma gondii [1]) [µM] | IC50 [2] [nM] | IC50 [3] [nM] | IC50 (Toxoplasma gondii [4]) [µM] |
| --- | --- | --- | --- | --- | --- |
| CCCCCCCCCCCCCCCCCCNCC(P(=O)(O)O)P(=O)(O)O | > 10000 | 5.29 |  |  |  |
| CCCCCCCCCCCCCCCCNCC(P(=O)(O)O)P(=O)(O)O | 2190 | 4.13 |  |  |  |
| O=P(O)(O)C(CNCc1ccccc1)P(=O)(O)O | > 10000 | > 10 | > 1000 |  |  |
| O=C(Cn1ccnc1[N+](=O)[O-])NCc1ccccc1 [BENZNIDAZOLE] | 2770 |  |  |  |  |
| CCCCCCCCCCCNCC(P(=O)(O)O)P(=O)(O)O | 5130 | > 10 | 856 | 868 |  |
| CCCCCCCCCCCCCCNCC(P(=O)(O)O)P(=O)(O)O | > 10000 | 11.3 | > 1000 | 292 |  |
| CCCCCCNCC(P(=O)(O)O)P(=O)(O)O | 840 |  |  |  | 9.37 |
| CCCCCCCCCCNCC(P(=O)(O)O)P(=O)(O)O | > 10000 | > 10 | > 1000 | 68 |  |
| CCCCCCCCCCCCNCC(P(=O)(O)O)P(=O)(O)O | 670 | 6.23 | 811 | 93 |  |
| CCCCCCCCCNCC(P(=O)(O)O)P(=O)(O)O | > 10000 | > 10 | 430 | 440 |  |
